Assay results: patent US11147748B2, “Composition of temporary crown materials” (National Taipei University of Technology, priority 2019, dated 2021)
Entries after “also recorded” stand apart in the source; their conditions may differ. Where a name gives a salt, the structure may show the parent alone.

Experiments:
[1] = surface hardness test of temporary crowns (micro hardness tester); assay type: physicochemical; conditions: plasticizer added to temporary crown; load 4.903 N for 10 seconds; FIG. 6
Method: First, the temporary crown material was filled into a stainless steel mold (a diameter of 15 mm and a thickness of 1 mm). After the temporary crown was completely cured, the sample was immersed in ultrapure water and placed in an oven at 37° C. After 24 hours, the sample to be tested was taken out and placed in a micro hardness tester (HMV-2 series), and the load applied to the sample by the diamond indenter was 4.903 N for 10 seconds. Finally, the average length of the diagonal indentation on the surface of the sample was measured to calculate the surface hardness of the temporary crown. The calculation formula was: […]
wherein d is the length of the indentation, F is the load, and g is the gravity constant.

[2] = three-point bending test (flexural strength, toughness) of the temporary crown material; assay type: physicochemical; conditions: for toughness (in words): FIG. 5
Method: First, the temporary crown material was filled into a stainless steel mold (a length of 25 millimeters (mm), a width of 2 mm and a height of 2 mm). After the temporary crown was completely cured, the crown was immersed in ultrapure water and placed in an oven at 37° C. for 24 hours. […] The flexural strength was calculated by the following formula: […]
wherein F was the force (N) under the maximum load; b was the average width (mm) of the test piece; h was the average thickness (mm) of the test piece; and l was the pitch (mm) between the two lower fulcrums.
In addition, the toughness of the temporary crown is the integral area under the stress-strain curve, in which stress is put on Y-axis and strain is put on X-axis. The unit of the toughness is […]

[3] = system: fibroblasts (L929); assay: cytotoxicity test (MTT) with extract of the cured temporary crown material; assay type: cell-based; conditions: L929 co-cultured with material extract (0.2 g/ml) for 24 hours and 72 hours; plasticizer in crown material; FIG. 3
Method: First, 2 grams (g) of the mixture of the powder reagent and the liquid reagent were taken to be cured and then immersed in 10 ml of MEM culture medium at a temperature of 37° C. for 24 hours. Afterwards, an extract of the mixture was taken, in which the extraction ratio was 0.2 g/ml.
Further, fibroblasts (L929) were seeded in the 96-well plates and incubated for 1 day.
Afterwards, the cell culture media were removed, and then a material extract containing 10% fetal bovine serum (FBS) after filtration and a culture medium without the material extract as the control were added, respectively, and then incubated for 24-72 hours. Subsequently, the culture media were removed again, and then phosphate buffered saline (PBS) washes were performed, followed by PBS removal. The serum-free culture medium was formulated as a reaction reagent of MTT ((3-(4,5-dimethylthiazol-2-yl)-2,5-diphenyltetrazolium bromide)), and the ratio of the culture medium to the MTT solution was 1 mg/ml. Each well plate was added with 50 μl of MTT reagent and then placed in the incubator. After 2 hours, the MTT reagent was removed, and 100 μl of antifreezing agent (DMSO) was added. The 96-well plate was shaken for 30 minutes using a rotary shaker. After the reaction was completed, the absorbance at a wavelength of 570 nm was measured by an ELISA reader. […]

[4] = temporary crown with 2% plasticizer
[5] = temporary crown with 5% plasticizer
[6] = temporary crown with 10% plasticizer
[7] = temporary crown with 15% plasticizer
[8] = plasticizer added to temporary crown

| Elongation at break [2, 4] [%] | Flexural modulus [2, 4] [MPa] | Maximum stress [2, 4] [MPa] | Strain [2, 4] [%] | Toughness [2, 4] [MPa] | Elongation at break [2, 5] [%] | Flexural modulus [2, 5] [MPa] | Maximum stress [2, 5] [MPa] | Strain [2, 5] [%] | Toughness [2, 5] [MPa] | Elongation at break [2, 6] [%] | Flexural modulus [2, 6] [MPa] | Maximum stress [2, 6] [MPa] | Strain [2, 6] [%] | Toughness [2, 6] [MPa] | Elongation at break [2, 7] [%] | Flexural modulus [2, 7] [MPa] | Maximum stress [2, 7] [MPa] | Strain [2, 7] [%] | Toughness [2, 7] [MPa] | Structure (SMILES) | other results |
| --- | --- | --- | --- | --- | --- | --- | --- | --- | --- | --- | --- | --- | --- | --- | --- | --- | --- | --- | --- | --- | --- |
| 10.43 | 2173.29 | 80.70 | 8.94 | 77.26 | 13.14 | 2308.16 | 83.40 | 9.20 | 115.80 | 7.10 | 2029.32 | 69.93 | 7.09 | 30.88 | 5.34 | 1790.09 | 46.31 | 5.36 | 11.98 | CCOC(=O)CC(O)(CC(=O)OCC)C(=O)OCC [TEC, triethyl citrate] | toughness (in words) [2, 8]: can increase the toughness; cytotoxicity / cell survival rate [3]: not significantly improved |
| 7.94 | 2463.34 | 85.24 | 7.72 | 59.89 | 8.24 | 2362.61 | 81.98 | 7.82 | 57.21 | 6.50 | 2138.92 | 70.29 | 6.48 | 28.07 | 5.70 | 1897.78 | 55.59 | 5.71 | 17.39 | CCCCOC(=O)CC(CC(=O)OCCCC)(OC(C)=O)C(=O)OCCCC [ATBC, acetyl tributyl citrate] | flexural strength (in words) ([2]; plasticizer added to temporary crown, FIG. 4): can increase the flexural strength; toughness (in words) [2, 8]: can increase the toughness; cytotoxicity / cell survival rate [3]: less than that of adding plasticizers DBP and TEC; also recorded: less toxicity to cells |

| Structure (SMILES) | Elongation at break [2, 4] [%] | Flexural modulus [2, 4] [MPa] | Maximum stress [2, 4] [MPa] | Strain [2, 4] [%] | Toughness [2, 4] [MPa] | Elongation at break [2, 5] [%] | Flexural modulus [2, 5] [MPa] | Maximum stress [2, 5] [MPa] | Strain [2, 5] [%] | Toughness [2, 5] [MPa] | Elongation at break [2, 6] [%] | Flexural modulus [2, 6] [MPa] | Maximum stress [2, 6] [MPa] | Strain [2, 6] [%] | Toughness [2, 6] [MPa] | Elongation at break [2, 7] [%] | Flexural modulus [2, 7] [MPa] | Maximum stress [2, 7] [MPa] | Strain [2, 7] [%] | Toughness [2, 7] [MPa] | other results |
| --- | --- | --- | --- | --- | --- | --- | --- | --- | --- | --- | --- | --- | --- | --- | --- | --- | --- | --- | --- | --- | --- |
| CCCCOC(=O)c1ccccc1C(=O)OCCCC [DBP, dibutyl phthalate, reference compound] | 10.86 | 1215.08 | 66.56 | 10.75 | 28.74 | 11.43 | 1199.73 | 62.75 | 10.75 | 31.14 | 9.56 | 1083.70 | 54.11 | 9.75 | 18.94 | 9.68 | 997.11 | 46.25 | 9.50 | 17.35 | surface hardness (in words) [1]: contributes to the increase of surface hardness |
